Experimental data as given in patent US20120088791A1, “AMIDOBIPIPERIDINECARBOXYLATE M1 ALLOSTERIC AGONISTS, ANALOGS AND DERIVATIVES THEREOF, AND METHODS OF MAKING AND USING SAME” (VANDERBILT UNIVERSITY, priority 2009, published 2012).
Where two headings read alike, the source gives them in different places.

Molecular target: T1, rM1 (Rattus norvegicus, UniProt P08482)
T1 construct: host or cells: CHO-K1
T1 sequence (P08482 1-460): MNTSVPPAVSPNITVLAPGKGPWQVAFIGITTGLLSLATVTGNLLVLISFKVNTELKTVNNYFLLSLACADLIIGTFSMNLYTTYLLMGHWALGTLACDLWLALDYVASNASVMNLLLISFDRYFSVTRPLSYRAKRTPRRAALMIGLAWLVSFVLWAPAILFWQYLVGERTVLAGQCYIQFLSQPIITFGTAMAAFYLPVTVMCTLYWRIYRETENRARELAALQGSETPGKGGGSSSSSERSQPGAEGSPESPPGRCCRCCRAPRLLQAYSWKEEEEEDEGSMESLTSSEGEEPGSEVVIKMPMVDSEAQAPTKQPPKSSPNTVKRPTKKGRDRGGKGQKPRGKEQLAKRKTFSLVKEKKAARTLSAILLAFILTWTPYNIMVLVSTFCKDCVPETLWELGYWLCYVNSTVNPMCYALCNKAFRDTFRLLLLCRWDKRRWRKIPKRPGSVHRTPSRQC
Test: Calcium mobilization assay, CHO-K1 cells stably expressing rM1
Format: cell-based
Conditions: for Emax: RM1, read-out: Efficacy (% Max ACh); for EC50: read-out: Potency (EC50)
Text: Cell culture and transfections. Chinese hamster ovary (CHO-K1) cells stably expressing rat (r)M1 were purchased from the American Type Culture Collection and cultured according to their indicated protocol. CHO cells stably expressing human (h)M2, hM3, and hM5 were used and described previously (Levey et al., 1991); rM4 cDNA, provided by T. I. Bonner (National Institutes of Health, Bethesda, Md.), was used to stably transfect CHO-K1 cells purchased from the American Type Culture Collection using Lipofectamine2000. To make stable hM2 and rM4 cell lines for use in calcium mobilization assays, these cells also were stably transfected with a chimeric G-protein (Gqi5) using Lipofectamine 2000. M1, hM3, and hM5 cells were grown in Ham's F-12 medium containing 10% heat-inactivated fetal bovine serum (FBS), 20 mM HEPES, and 50 μg/ml G418 sulfate. hM2-Gqi5 cells were grown in the same medium also containing 500 μg/ml Hygromycin B. Stable rM4-Gqi5 cells were grown in DMEM containing 10% heat-inactivated FBS, 20 mM HEPES, 400 μg/ml G418 sulfate, and 500 μg/ml Hygromycin B. The rat M1 Y381A orthosteric mutant receptor cDNA was generated using the Quik-Change site-directed mutagenesis kit (Stratagene) and verified by sequencing. CHO-K1 cells were stably transfected with this cDNA using Lipofectamine2000 and screened for expression based on calcium mobilization in response to the allosteric M1 agonist N-desmethylclozapine.
Calcium mobilization assays. For measurement of agonist-evoked increases in intracellular calcium, CHO-K1 cells stably expressing muscarinic receptors were plated in 100 μl of growth medium at 5×10^4 (rM1, hM3, and hM5) or 6×10^4 cells per well (rM1 Y381A, hM2, and rM4) in Costar 96-well black-walled, tissue culture (TC)-treated, clear-bottom plates (Fisher). Cells were incubated overnight at 37° C. and 5% CO2. The next day, medium was removed from the cells, and they were incubated with 50 μl of 2 μM Fluo-4 AM diluted in assay buffer [HBSS (Invitrogen) supplemented with 20 mM HEPES and 2.5 mM probenecid, pH 7.4] for 1 h at 37° C. Dye was removed and replaced with 45 μl of assay buffer. Agonists were diluted into assay buffer at a 2× concentration and applied to cells using the automated system at 19 s into the 130 s protocol. Calcium flux was measured over time as an increase in fluorescence (fold over basal) using the Flexstation plate reader (Molecular Devices).

[1] = Table 1, R-enantiomers, agonist-evoked calcium flux

Structure (SMILES) | Emax (Table 1, R-enantiomers) | EC50 [1] | EC50 (Table 2, S-enantiomers)
CCOC(=O)N1CCC(N2CCC[C@@H](NC(=O)c3ccccc3Cl)C2)CC1 [(R)-ethyl 3-(2-chlorobenzamido)-1,4′-bipiperidine-1′-carboxylate] | 57% | 2600 nM | –
CCOC(=O)N1CCC(N2CCC[C@@H](NC(=O)c3ccc(F)c(F)c3)C2)CC1 [(R)-ethyl 3-(3,4-difluorobenzamido)-1,4′-bipiperidine-1′-carboxylate] | 84% | 309 nM | –
CCOC(=O)N1CCC(N2CCC[C@@H](NC(=O)c3cccc(F)c3)C2)CC1 [(R)-ethyl 3-(3-fluorobenzamido)-1,4′-bipiperidine-1′-carboxylate] | 92% | 144 nM | –
CCOC(=O)N1CCC(N2CCC[C@@H](NC(=O)c3ccc(F)cc3C)C2)CC1 [(R)-ethyl 3-(4-fluoro-2-methylbenzamido)-1,4′-bipiperidine-1′-carboxylate] | 77% | 59 nM | –
CCOC(=O)N1CCC(N2CCC[C@@H](NC(=O)C3CCCCC3)C2)CC1 [(R)-ethyl 3-(cyclohexanecarboxamido)-1,4′-bipiperidine-1′-carboxylate] | 44% | 685 nM | –
CCOC(=O)N1CCC(N2CCC[C@@H](NC(=O)C3CCCC3)C2)CC1 [(R)-ethyl 3-(cyclopentanecarboxamido)-1,4′-bipiperidine-1′-carboxylate] | 35% | 5300 nM | –
CCOC(=O)N1CCC(N2CCC[C@@H](NC(=O)c3cccs3)C2)CC1 [(R)-ethyl 3-(thiophene-2-carboxamido)-1,4′-bipiperidine-1′-carboxylate] | 61% | 1300 nM | –
CCOC(=O)N1CCC(N2CCC[C@H](NC(=O)c3ccccc3Cl)C2)CC1 [(S)-ethyl 3-(2-chlorobenzamido)-1,4′-bipiperidine-1′-carboxylate] | – | – | > 10000 nM
CCOC(=O)N1CCC(N2CCC[C@H](NC(=O)c3ccccc3C)C2)CC1 [(S)-ethyl 3-(2-methylbenzamido)-1,4′-bipiperidine-1′-carboxylate] | – | – | > 10000 nM
CCOC(=O)N1CCC(N2CCC[C@H](NC(=O)c3ccc(F)c(F)c3)C2)CC1 [(S)-ethyl 3-(3,4-difluorobenzarnido)-1,4′-bipiperidine-1′-carboxylate] | – | – | > 10000 nM
CCOC(=O)N1CCC(N2CCC[C@H](NC(=O)c3ccc(F)cc3C)C2)CC1 [(S)-ethyl 3-(4-fluoro-2-methylbenzamido)-1,4′-bipiperidine-1′-carboxylate] | – | – | > 10000 nM
CCOC(=O)N1CCC(N2CCC[C@H](NC(=O)C3CCCCC3)C2)CC1 [(S)-ethyl 3-(cyclohexanecarboxamido)-1,4′-bipiperidine-1′-carboxylate] | – | – | > 10000 nM
CCOC(=O)N1CCC(N2CCC[C@H](NC(=O)C3CCCC3)C2)CC1 [(S)-ethyl 3-(cyclopentanecarboxamido)-1,4′-bipiperidine-1′-carboxylate] | – | – | > 10000 nM
CCOC(=O)N1CCC(N2CCC[C@H](NC(=O)c3cccs3)C2)CC1 [(S)-ethyl 3-(thiophene-2-carboxamido)-1,4′-bipiperidine-1′-carboxylate] | – | – | > 10000 nM

Further lines, results first:

Emax (Table 1, R-enantiomers) | EC50 [1] | EC50 (Table 2, S-enantiomers) | Structure (SMILES)
91% | 245 nM | – | CCOC(=O)N1CCC(N2CCC[C@@H](NC(=O)c3cccc(OC)c3)C2)CC1 [(R)-ethyl 3-(3-methoxybenzamido)-1,4′-bipiperidine-1′-carboxylate]
63% | 963 nM | – | CCOC(=O)N1CCC(N2CCC[C@@H](NC(=O)c3ccc(OC)cc3)C2)CC1 [(R)-ethyl 3-(4-methoxybenzamido)-1,4′-bipiperidine-1′-carboxylate]
14% | 819 nM | – | CCOC(=O)N1CCC(N2CCC[C@@H](NC(=O)c3ccc(C)cc3)C2)CC1 [(R)-ethyl 3-(4-methylbenzamido)-1,4′-bipiperidine-1′-carboxylate]
– | – | > 10000 nM | CCOC(=O)N1CCC(N2CCC[C@H](NC(=O)c3cccc(F)c3)C2)CC1 [(S)-ethyl 3-(3-fluorobenzamido)-1,4′-bipiperidine-1′-carboxylate]
– | – | > 10000 nM | CCOC(=O)N1CCC(N2CCC[C@H](NC(=O)c3cccc(OC)c3)C2)CC1 [(S)-ethyl 3-(3-methoxybenzamido)-1,4′-bipiperidine-1′-carboxylate]
– | – | > 10000 nM | CCOC(=O)N1CCC(N2CCC[C@H](NC(=O)c3ccc(OC)cc3)C2)CC1 [(S)-ethyl 3-(4-methoxybenzamido)-1,4′-bipiperidine-1′-carboxylate]
– | – | > 10000 nM | CCOC(=O)N1CCC(N2CCC[C@H](NC(=O)c3ccc(C)cc3)C2)CC1 [(S)-ethyl 3-(4-methylbenzamido)-1,4′-bipiperidine-1′-carboxylate]
– | – | > 10000 nM | CCOC(=O)N1CCC(N2CCC[C@H](NC(=O)c3ccccc3)C2)CC1 [(S)-ethyl 3-benzamido-1,4′-bipiperidine-1′-carboxylate]
